{
  "source": "paper PMC2593051",
  "about": "“Biochemical and Genetic Characterization of PspE and GlpE, Two Single-domain Sulfurtransferases of Escherichia coli” (The Open Microbiology Journal, 2008)",
  "molecules": {"B1": {"name": "PspE (fraction PspE2) (Escherichia coli K-12) (protein)", "chain": "AEHWIDVRVPEQYQQEHVQGAINIPLKEVKERIATAVPDKNDTVKVYCNAGRQSGQAKEILSEMGYTHVENAGGLKDIAMPKVKG", "notes": "85 residues, 9428 Da; untagged; overexpressed from pHC4.1 (pT7-7) in E. coli BL21(DE3), freeze-thaw extract, SP cation exchange; partly persulfide/sulfonate modified at single cysteine"}},
  "key": {"PspE (fraction PspE2) [1]": {"molecular_target": "T1, PspE (fraction PspE2) (Escherichia coli, UniProt P23857)", "T1 construct": "85 residues, 9428 Da; untagged; overexpressed from pHC4.1 (pT7-7) in E. coli BL21(DE3), freeze-thaw extract, SP cation exchange; partly persulfide/sulfonate modified at single cysteine", "T1 sequence (P23857 20-104)": "B1 chain", "assay": "chemical inactivation by cysteine reagent", "type": "biochemical", "conditions": "covalent; active-site cysteine; fraction PspE1 more tolerant than PspE2; data not shown"}, "PspE (fraction PspE2) [2]": {"molecular_target": "T1, PspE (fraction PspE2)", "assay": "rhodanese assay", "type": "biochemical", "conditions": "Tris-acetate pH 8.6; for % inhibition at 0.25 M: 250000 µM, anion inhibition"}, "purified protein [3]": {"substrate": "OC(CS)C(O)CS", "assay": "purified protein", "type": "biochemical, Escherichia coli", "conditions": "sulfur acceptor, 4 mM or 10 mM thiosulfate, Tris-acetate pH 8.6, PspE fraction not stated"}, "purified protein [4]": {"substrate": "O=S(O)(O)=S", "assay": "purified protein", "type": "biochemical, Escherichia coli", "conditions": "pH 8.6; 25.0 °C"}},
  "note": "Structures can show the parent of a compound that is named as a salt.",
  "data": [
    {"molecule": "O=C(O)c1cc(SSc2ccc([N+](=O)[O-])c(C(=O)O)c2)ccc1[N+](=O)[O-]", "note": "[5,5’-dithio-bis(2-nitrobenzoic acid)]", "values": [
      {"measurement": "chemical inactivation by cysteine reagent", "setting": "PspE (fraction PspE2) [1]", "value": "PspE1 was much more tolerant to chemical inactivation by the cysteine-modifying reagent"}
    ]},
    {"molecule": "O=P(O)(O)O", "note": "[sodium phosphate]", "values": [
      {"measurement": "% inhibition at 0.25 M", "setting": "PspE (fraction PspE2) [2]", "value": "~ 65%"}
    ]},
    {"molecule": "O=S(=O)(O)O", "note": "[sodium sulfate]", "values": [
      {"measurement": "% inhibition at 0.25 M", "setting": "PspE (fraction PspE2) [2]", "value": "~ 50%"}
    ]},
    {"molecule": "O=S(O)O", "note": "[sodium sulfite]", "values": [
      {"measurement": "% inhibition at 1 mM", "setting": "PspE (fraction PspE2) [2]; rhodanese product as inhibitor, data not shown", "value": "> 50", "unit": "%"}
    ]},
    {"molecule": "B1", "values": [
      {"measurement": "Km", "setting": "purified protein [3]", "value": 10, "unit": "mM"},
      {"measurement": "Km", "setting": "purified protein [4]", "value": 2.7, "unit": "mM"},
      {"measurement": "kcat", "setting": "purified protein [4]", "value": 64, "unit": "s⁻¹"}
    ]}
  ]
}
